Data published in ChEMBL document CHEMBL1821644, “A prodrug approach for improving antituberculosis activity of potent Mycobacterium tuberculosis type II dehydroquinase inhibitors” (J Med Chem, 2011).
Converted amounts (≈) assume the structure as drawn. The source made the active and inactive calls. The calls are words filed in the database; no cut-off is given here.

Tests used:
MRC5 = assay: Cytotoxicity against human MRC5 at 300 to 400 ug/ml using crystal violet staining; assay type: cell-based
[1] = tested on: Mycobacterium tuberculosis; assay: Antimicrobial activity against Mycobacterium tuberculosis H37Rv by Microplate Alamar blue assay; assay type: functional
[2] = molecular target: T1, 3-dehydroquinate dehydratase (Mycobacterium tuberculosis) (UniProt P9WPX7); assay: Reversible inhibition of Mycobacterium tuberculosis DHQ2
T1 sequence (whole entry): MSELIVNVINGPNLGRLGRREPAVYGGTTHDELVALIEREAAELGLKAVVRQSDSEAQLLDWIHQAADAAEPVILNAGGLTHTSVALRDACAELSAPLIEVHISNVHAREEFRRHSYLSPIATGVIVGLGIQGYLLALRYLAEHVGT

[3] = molecular target: T2, 3-dehydroquinate dehydratase (Helicobacter pylori (strain ATCC 700392 / 26695) (Campylobacterpylori), UniProt Q48255); assay: Competitive inhibition of Helicobacter pylori DHQ2
T2 sequence (Q48255 whole entry): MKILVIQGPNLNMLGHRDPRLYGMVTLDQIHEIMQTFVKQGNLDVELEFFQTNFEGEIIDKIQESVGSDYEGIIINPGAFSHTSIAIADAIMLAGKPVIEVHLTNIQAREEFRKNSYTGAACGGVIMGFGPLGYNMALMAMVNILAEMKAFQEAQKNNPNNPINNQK

[4] = molecular target: T3, 3-dehydroquinate dehydratase (Helicobacter pylori (strain ATCC 700392 / 26695) (Campylobacterpylori)) (UniProt Q48255); assay: Reversible inhibition of Helicobacter pylori DHQ2
T3 sequence (whole entry): T2 sequence (Q48255 whole entry)

[5] = molecular target: T4, 3-dehydroquinate dehydratase (Mycobacterium tuberculosis, UniProt P9WPX7); assay: Competitive inhibition of Mycobacterium tuberculosis DHQ2
T4 sequence (P9WPX7 whole entry): T1 sequence (whole entry)

| Compound | Activity (MRC5) | MIC [1] | inhibition [2] | Ki [3] | inhibition [4] | Ki [5] |
| --- | --- | --- | --- | --- | --- | --- |
| CCCC(=O)O[C@@H]1C(OCc2ccc3sccc3c2)=C[C@@](O)(C(=O)OCC)C[C@H]1OC(=O)CCC | Non-toxic | 5 µg/mL (≈ 9.91 µM) |  |  |  |  |
| O=C(O)[C@@]1(O)C[C@@H](O)[C@H](O)C(OCc2cccs2)=C1Cc1ccc2sccc2c1 |  |  | Active | 100 nM | Active | 59 nM |
| CCCOC(=O)[C@]1(O)C=C(OCc2ccc3sccc3c2)[C@@H](OC(=O)CCC)[C@H](OC(=O)CCC)C1 | Non-toxic | 20 µg/mL (≈ 38.6 µM) |  |  |  |  |
| CCCOC(=O)[C@]1(O)C=C(OCc2ccc3ccccc3c2)[C@@H](O)[C@H](O)C1 | Non-toxic | 10 µg/mL (≈ 26.9 µM) |  |  |  |  |
| O=C(O)[C@@]1(O)C[C@@H](O)[C@H](O)C(OCc2cc3ccccc3s2)=C1Cc1cccs1 |  |  | Active | 280 nM | Active |  |
| O=C(O)[C@]1(O)C=C(c2cccs2)[C@@H](O)[C@H](O)C1 |  |  |  |  |  | 250 nM |
| COC(=O)[C@]1(O)C=C(OCc2ccc3sccc3c2)[C@@H](O)[C@H](O)C1 | Non-toxic | > 160 µg/mL |  |  |  |  |
| O=C(O)[C@]1(O)C=C(OCc2ccc3ccccc3c2)[C@@H](O)[C@H](O)C1 |  |  | Active | 310 nM | Active | 35 nM |
| Cc1ccc2sc(COC3=C[C@@](O)(C(=O)O)C[C@@H](O)[C@@H]3O)cc2c1 |  |  | Active |  | Active |  |
| O=C(O)[C@@]1(O)C[C@@H](O)[C@H](O)C(OCc2cccs2)=C1Cc1cccs1 |  |  | Active | 14600 nM | Active | 5100 nM |
| O=C(O)[C@]1(O)C=C(OCc2ccc3sccc3c2)[C@@H](O)[C@H](O)C1 |  |  | Active |  | Active |  |
| CCOC(=O)[C@]1(O)C=C(OCc2cc3ccccc3s2)[C@@H](O)[C@H](O)C1 | Non-toxic | 40 µg/mL (≈ 110 µM) |  |  |  |  |
| Cc1ccc2sc(CC3=C(OCc4cccs4)[C@@H](O)[C@H](O)C[C@]3(O)C(=O)O)cc2c1 |  |  | Active | 279 nM | Active | 870 nM |
| Cc1ccc2sc(COC3=C(Cc4cc5cc(C)ccc5s4)[C@@](O)(C(=O)O)C[C@@H](O)[C@@H]3O)cc2c1 |  |  | Active | 50 nM | Active |  |
| COC(=O)[C@@]1(O)C[C@@H](O)[C@H](O)C(OCc2cc3ccc(Cl)cc3s2)=C1Cc1cc2ccc(Cl)cc2s1 | Non-toxic | 80 µg/mL (≈ 141 µM) |  |  |  |  |
| CCCC(=O)O[C@@H]1C(OCc2ccc3ccccc3c2)=C[C@@](O)(C(=O)OCC)C[C@H]1OC(=O)CCC | Non-toxic | 5 µg/mL (≈ 10 µM) |  |  |  |  |
| O=C(O)[C@@]1(O)C[C@@H](O)[C@H](O)C(OCc2cc3ccc(Cl)cc3s2)=C1Cc1cc2ccc(Cl)cc2s1 |  |  | Active | 6700 nM | Active | 1100 nM |
| COC(=O)[C@@]1(O)C[C@@H](O)[C@H](O)C(OCc2cc3cc(C)ccc3s2)=C1Cc1cc2cc(C)ccc2s1 | Non-toxic | > 160 µg/mL |  |  |  |  |
| C=CCC1=C(OCc2cc3ccccc3s2)[C@@H](O)[C@H](O)C[C@]1(O)C(=O)O |  |  | Active |  | Active |  |
| CCOC(=O)[C@]1(O)C=C(OCc2ccc3ccccc3c2)[C@@H](O)[C@H](O)C1 | Non-toxic | 20 µg/mL (≈ 55.8 µM) |  |  |  |  |

| Compound | Activity (MRC5) | MIC [1] | inhibition [2] | Ki [3] | inhibition [4] | Ki [5] |
| --- | --- | --- | --- | --- | --- | --- |
| O=C(O)[C@]1(O)C=C(/C=C/COc2ccc(F)cc2)[C@@H](O)[C@H](O)C1 |  |  |  |  |  | 120 nM |
| COC(=O)[C@]1(O)C=C(OCc2cc3cc(C)ccc3s2)[C@@H](O)[C@H](O)C1 | Non-toxic | > 160 µg/mL |  |  |  |  |
| CCCOC(=O)[C@]1(O)C=C(OCc2cc3ccc(Cl)cc3s2)[C@@H](O)[C@H](O)C1 | Non-toxic | 40 µg/mL (≈ 96.9 µM) |  |  |  |  |
| O=C(O)[C@@]1(O)C[C@@H](O)[C@H](O)C(OCc2ccc3ccccc3c2)=C1Cc1ccc2ccccc2c1 |  |  | Active | 260 nM | Active | 6000 nM |
| O=C(O)[C@]1(O)C=C(OCc2cccs2)[C@@H](O)[C@H](O)C1 |  |  | Active |  | Active | 235 nM |
| O=C(O)[C@@]1(O)C[C@@H](O)[C@H](O)C(OCc2cc3ccccc3s2)=C1Cc1cc2ccccc2s1 |  |  | Active | 97 nM | Active | 40 nM |
| COC(=O)[C@]1(O)C=C(OCc2cc3ccc(Cl)cc3s2)[C@@H](O)[C@H](O)C1 | Non-toxic | > 160 µg/mL |  |  |  |  |
| CCOC(=O)[C@@]1(O)C[C@@H](O)[C@H](O)C(OCc2cc3ccc(Cl)cc3s2)=C1Cc1cc2ccc(Cl)cc2s1 | Non-toxic | > 160 µg/mL |  |  |  |  |
| CCCOC(=O)[C@]1(O)C=C(OCc2cc3ccccc3s2)[C@@H](O)[C@H](O)C1 | Non-toxic | 5 µg/mL (≈ 13.2 µM) |  |  |  |  |
| O=C(O)[C@]1(O)C=C(OCc2cc3ccccc3s2)[C@@H](O)[C@H](O)C1 |  |  | Active |  | Active | 28 nM |
| O=C(O)[C@@]1(O)C[C@@H](O)[C@H](O)C(OCc2ccc3sccc3c2)=C1Cc1ccc2sccc2c1 |  |  | Active | 140 nM | Active |  |
| O=C(O)[C@]1(O)C=C(OCc2cc3ccc(Cl)cc3s2)[C@@H](O)[C@H](O)C1 |  |  | Active | 205 nM | Active | 35 nM |
| CCOC(=O)[C@@]1(O)C[C@@H](O)[C@H](O)C(OCc2ccc3sccc3c2)=C1Cc1ccc2sccc2c1 | Non-toxic | 160 µg/mL (≈ 313 µM) |  |  |  |  |
| CCCOC(=O)[C@]1(O)C=C(OCc2ccc3ccccc3c2)[C@@H](OC(=O)CCC)[C@H](OC(=O)CCC)C1 | Non-toxic | 5 µg/mL (≈ 9.75 µM) |  |  |  |  |
| CCCC(=O)O[C@@H]1C(OCc2ccc3ccccc3c2)=C[C@@](O)(C(=O)OCC)C[C@H]1O | Non-toxic | 10 µg/mL (≈ 23.3 µM) |  |  |  |  |
| CCCOC(=O)[C@]1(O)C=C(OCc2ccc3sccc3c2)[C@@H](O)[C@H](O)C1 | Non-toxic | 20 µg/mL (≈ 52.8 µM) |  |  |  |  |
| CCOC(=O)[C@]1(O)C=C(OCc2cc3ccc(Cl)cc3s2)[C@@H](O)[C@H](O)C1 | Non-toxic | 40 µg/mL (≈ 100 µM) |  |  |  |  |
| CCOC(=O)[C@]1(O)C=C(OCc2ccc3sccc3c2)[C@@H](O)[C@H](O)C1 | Non-toxic | 40 µg/mL (≈ 110 µM) |  |  |  |  |
| COC(=O)[C@]1(O)C=C(OCc2cc3ccccc3s2)[C@@H](O)[C@H](O)C1 | Non-toxic | > 160 µg/mL |  |  |  |  |
| CCCOC(=O)[C@]1(O)C=C(OCc2ccc3sccc3c2)[C@@H](OC(=O)CCC)[C@H](O)C1 | Non-toxic | 5 µg/mL (≈ 11.1 µM) |  |  |  |  |
